# Data from PubChem BioAssay (NCI).
#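 Step 1: Grow cells in 96-well plates. Step 2: Expose to compound for 48 hours at 5 concentrations. Step 3: Interpolate endpoints linearly; if unreached, use highest concentration. Abbreviation: GI50, concentration required for 50% inhibition of growth. TGI marks complete inhibition of growth.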
# What was measured:
# Test in all cases: NCI tumour cell line growth inhibition, 48 h
# [1] = tested on: 786-0 renal
# [2] = tested on: A498 renal
# [3] = tested on: A549 NSCLC
# [4] = tested on: ACHN renal
# [5] = tested on: BT-549 breast
# [6] = tested on: CAKI-1 renal
# [7] = tested on: COLO 205 colon
# [8] = tested on: DU-145 prostate
# [9] = tested on: EKVX NSCLC
# [10] = tested on: HCC-2998 colon
# [11] = tested on: HCT-116 colon
# [12] = tested on: HCT-15 colon
# [13] = tested on: HL-60(TB) leukemia
# [14] = tested on: HOP-62 NSCLC
# [15] = tested on: HOP-92 NSCLC
# [16] = tested on: HS 578T breast
# [17] = tested on: HT29 colon
# [18] = tested on: IGROV1 ovarian
# [19] = tested on: K-562 leukemia
# [20] = tested on: KM12 colon
# [21] = tested on: LOX IMVI melanoma
# [22] = tested on: M14 melanoma
# [23] = tested on: MALME-3M melanoma
# [24] = tested on: MCF7 breast
# [25] = tested on: MDA-MB-231 breast
# [26] = tested on: MDA-MB-435
# [27] = tested on: MOLT-4 leukemia
# [28] = tested on: NCI-H226 lung
# [29] = tested on: NCI-H23 lung
# [30] = tested on: NCI-H460 lung
# [31] = tested on: NCI-H522 lung
# [32] = tested on: NCI/ADR-RES ovarian
# [33] = tested on: OVCAR-3 ovarian
# [34] = tested on: OVCAR-4 ovarian
# [35] = tested on: OVCAR-5 ovarian
# [36] = tested on: OVCAR-8 ovarian
# [37] = tested on: PC-3 prostate
# [38] = tested on: RPMI-8226 leukemia
# [39] = tested on: RXF 393 renal
# [40] = tested on: SF-268 CNS
# [41] = tested on: SF-295 CNS
# [42] = tested on: SF-539 CNS
# [43] = tested on: SK-MEL-2 melanoma
# [44] = tested on: SK-MEL-28 melanoma
# [45] = tested on: SK-MEL-5 melanoma
# [46] = tested on: SK-OV-3 ovarian
# [47] = tested on: SN12C renal
# [48] = tested on: SNB-19 CNS
# [49] = tested on: SNB-75 CNS
# [50] = tested on: SR leukemia
# [51] = tested on: SW-620 colon
# [52] = tested on: T-47D breast
# [53] = tested on: TK-10 renal
# [54] = tested on: U251 CNS
# [55] = tested on: UACC-257 melanoma
# [56] = tested on: UACC-62 melanoma
# [57] = tested on: UO-31 renal
smiles,measurement,setting,value
COc1ccc2oc(=O)cc(C3c4ccc([nH]4)C(c4cc(=O)oc5ccc(OC)cc45)c4ccc([nH]4)C(c4cc(=O)oc5ccc(OC)cc45)c4ccc([nH]4)C(c4cc(=O)oc5ccc(OC)cc45)c4ccc3[nH]4)c2c1 (centres undefined),GI50,[1],1 µM
same,TGI,[1],2.2 µM
same,GI50,[2],4.09 µM
same,TGI,[2],12.7 µM
same,GI50,[3],4.23 µM
same,TGI,[3],14.3 µM
same,GI50,[4],2.12 µM
same,TGI,[4],6.71 µM
same,GI50,[5],2.02 µM
same,TGI,[5],5.36 µM
same,GI50,[6],2.16 µM
same,TGI,[6],6.77 µM
same,GI50,[7],1.75 µM
same,TGI,[7],3.6 µM
same,GI50,[8],2.07 µM
same,TGI,[8],4.75 µM
same,GI50,[9],7.58 µM
same,TGI,[9],22.3 µM
same,GI50,[10],2.17 µM
same,TGI,[10],4.06 µM
same,GI50,[11],0.57 µM
same,TGI,[11],1.93 µM
same,GI50,[12],0.399 µM
same,TGI,[12],1.53 µM
same,GI50,[13],0.357 µM
same,TGI,[13],0.976 µM
same,GI50,[14],2.73 µM
same,TGI,[14],9.56 µM
same,GI50,[15],2.05 µM
same,TGI,[15],6.5 µM
same,GI50,[16],2.8 µM
same,TGI,[16],9.43 µM
same,GI50,[17],2.28 µM
same,TGI,[17],5.44 µM
same,GI50,[18],2.44 µM
same,TGI,[18],10.8 µM
same,GI50,[19],0.413 µM
same,TGI,[19],2.03 µM
same,GI50,[20],2.91 µM
same,TGI,[20],10.8 µM
same,GI50,[21],0.814 µM
same,TGI,[21],2.43 µM
same,GI50,[22],1.24 µM
same,TGI,[22],4.6 µM
same,GI50,[23],1.54 µM
same,TGI,[23],3.73 µM
same,GI50,[24],0.364 µM
same,TGI,[24],2.16 µM
same,GI50,[25],2.15 µM
same,TGI,[25],9.04 µM
same,GI50,[26],1.9 µM
same,TGI,[26],6.66 µM
same,GI50,[27],0.414 µM
same,TGI,[27],4.24 µM
same,GI50,[28],1.36 µM
same,TGI,[28],4.63 µM
same,GI50,[29],2.37 µM
same,TGI,[29],6.42 µM
same,GI50,[30],3.11 µM
same,TGI,[30],10.4 µM
same,GI50,[31],1.65 µM
same,TGI,[31],3.16 µM
same,GI50,[32],0.594 µM
same,TGI,[32],24.8 µM
same,GI50,[33],0.23 µM
same,TGI,[33],0.611 µM
same,GI50,[34],1.26 µM
same,TGI,[34],2.78 µM
same,GI50,[35],2.98 µM
same,TGI,[35],11.1 µM
same,GI50,[36],0.619 µM
same,TGI,[36],2.78 µM
same,GI50,[37],2.21 µM
same,TGI,[37],6.76 µM
same,GI50,[38],0.432 µM
same,TGI,[38],2.04 µM
same,GI50,[39],0.318 µM
same,TGI,[39],0.95 µM
same,GI50,[40],2.89 µM
same,TGI,[40],11.2 µM
same,GI50,[41],2.82 µM
same,TGI,[41],10.6 µM
same,GI50,[42],1.7 µM
same,TGI,[42],3.91 µM
same,GI50,[43],3.02 µM
same,TGI,[43],9.5 µM
same,GI50,[44],2.48 µM
same,TGI,[44],12.9 µM
same,GI50,[45],2.21 µM
same,TGI,[45],9.07 µM
same,GI50,[46],2.45 µM
same,TGI,[46],7.33 µM
same,GI50,[47],3.12 µM
same,TGI,[47],12.7 µM
same,GI50,[48],5.48 µM
same,TGI,[48],18.3 µM
same,GI50,[49],2.71 µM
same,TGI,[49],14.8 µM
same,GI50,[50],0.371 µM
same,TGI,[50],1.66 µM
same,GI50,[51],0.389 µM
same,TGI,[51],1.69 µM
same,GI50,[52],0.475 µM
same,TGI,[52],3.69 µM
same,GI50,[53],1.58 µM
same,TGI,[53],2.95 µM
same,GI50,[54],4 µM
same,TGI,[54],13.9 µM
same,GI50,[55],2.25 µM
same,TGI,[55],13.2 µM
same,GI50,[56],2.69 µM
same,TGI,[56],7.81 µM
same,GI50,[57],1.22 µM
same,TGI,[57],3.74 µM
